According to the NIST ThermoML archive (doi:10.1021/je200811n):

Details: Hot wire method

C=C(F)C(F)(F)F [2,3,3,3-tetrafluoro-1-propene]
Details	thermal conductivity [W/m/K]
272.85 K, 247 kPa, Gas	0.01156
272.89 K, 200 kPa, Gas	0.01156
272.97 K, 145 kPa, Gas	0.0116
273.04 K, 106 kPa, Gas	0.01162
273.14 K, 261 kPa, Gas	0.01159
273.17 K, 273 kPa, Gas	0.01162
273.19 K, 247 kPa, Gas	0.01159
273.26 K, 200 kPa, Gas	0.0116
273.35 K, 144 kPa, Gas	0.01162
273.44 K, 105 kPa, Gas	0.01163
273.46 K, 258 kPa, Gas	0.01159
273.55 K, 274 kPa, Gas	0.01163
273.58 K, 248 kPa, Gas	0.01163
273.64 K, 200 kPa, Gas	0.0116
273.76 K, 142 kPa, Gas	0.01165
273.82 K, 255 kPa, Gas	0.01165
273.87 K, 104 kPa, Gas	0.01165
274.2 K, 253 kPa, Gas	0.01169
281.36 K, 838 kPa, Liquid	0.06988
281.38 K, 860 kPa, Liquid	0.06977
281.41 K, 5779 kPa, Liquid	0.07285
281.44 K, 10941 kPa, Liquid	0.07602
281.46 K, 841 kPa, Liquid	0.06981
281.48 K, 862 kPa, Liquid	0.06968
281.51 K, 5779 kPa, Liquid	0.07276
281.54 K, 10939 kPa, Liquid	0.07609
281.66 K, 86 kPa, Gas	0.01256
281.66 K, 204 kPa, Gas	0.01278
281.79 K, 859 kPa, Liquid	0.06833
281.83 K, 10935 kPa, Liquid	0.07514
281.88 K, 202 kPa, Gas	0.01259
281.89 K, 87 kPa, Gas	0.01239
281.89 K, 843 kPa, Liquid	0.06853
281.93 K, 861 kPa, Liquid	0.06844
281.93 K, 5767 kPa, Liquid	0.07189
281.94 K, 10934 kPa, Liquid	0.07471
281.98 K, 15950 kPa, Liquid	0.07767
282.01 K, 15964 kPa, Liquid	0.07708
282.11 K, 200 kPa, Gas	0.0125
282.13 K, 88 kPa, Gas	0.01231
282.23 K, 841 kPa, Liquid	0.06878
282.25 K, 20590 kPa, Liquid	0.0797
282.26 K, 866 kPa, Liquid	0.06872
282.26 K, 5764 kPa, Liquid	0.07204
282.26 K, 10935 kPa, Liquid	0.07477
282.27 K, 15954 kPa, Liquid	0.07706
282.31 K, 15965 kPa, Liquid	0.0773
282.35 K, 198 kPa, Gas	0.01243
282.38 K, 90 kPa, Gas	0.01224
282.4 K, 841 kPa, Liquid	0.06858
282.4 K, 5763 kPa, Liquid	0.07193
282.4 K, 10935 kPa, Liquid	0.07479
282.41 K, 864 kPa, Liquid	0.0687
282.41 K, 15954 kPa, Liquid	0.07738
282.44 K, 15967 kPa, Liquid	0.07756
282.56 K, 395 kPa, Gas	0.01244
282.61 K, 196 kPa, Gas	0.01241
282.61 K, 308 kPa, Gas	0.01242
282.64 K, 91 kPa, Gas	0.01218
282.66 K, 20587 kPa, Liquid	0.07986
282.71 K, 204 kPa, Gas	0.0124
282.74 K, 5763 kPa, Liquid	0.07185
282.74 K, 10939 kPa, Liquid	0.07487
282.74 K, 15951 kPa, Liquid	0.07763
282.75 K, 834 kPa, Liquid	0.06855
282.77 K, 860 kPa, Liquid	0.06866
282.77 K, 15964 kPa, Liquid	0.07774
282.81 K, 20585 kPa, Liquid	0.07986
282.87 K, 396 kPa, Gas	0.01251
282.89 K, 10938 kPa, Liquid	0.07473
282.9 K, 15949 kPa, Liquid	0.07751
282.92 K, 87 kPa, Gas	0.01242
282.92 K, 5765 kPa, Liquid	0.07169
282.93 K, 832 kPa, Liquid	0.06832
282.93 K, 15964 kPa, Liquid	0.07755
282.94 K, 309 kPa, Gas	0.01248
282.96 K, 859 kPa, Liquid	0.06843
283.07 K, 203 kPa, Gas	0.01237
283.22 K, 396 kPa, Gas	0.01252
283.24 K, 15950 kPa, Liquid	0.07752
283.25 K, 10936 kPa, Liquid	0.07481
283.26 K, 15963 kPa, Liquid	0.07747
283.26 K, 20587 kPa, Liquid	0.07981
283.28 K, 5763 kPa, Liquid	0.07184
283.3 K, 309 kPa, Gas	0.01244
283.3 K, 832 kPa, Liquid	0.06845
283.33 K, 86 kPa, Gas	0.01249
283.33 K, 857 kPa, Liquid	0.0685
283.43 K, 15951 kPa, Liquid	0.07738
283.45 K, 10934 kPa, Liquid	0.07455
283.45 K, 20590 kPa, Liquid	0.07959
283.46 K, 201 kPa, Gas	0.01238
283.46 K, 15962 kPa, Liquid	0.07733
283.49 K, 5765 kPa, Liquid	0.07154
283.53 K, 830 kPa, Liquid	0.06815
283.56 K, 855 kPa, Liquid	0.06813
283.59 K, 396 kPa, Gas	0.01244
283.69 K, 309 kPa, Gas	0.01251

Liquid
Details	thermal conductivity [W/m/K]
273.15 K	0.07159
283.15 K	0.06833
